Data as given in US20130116554A1, “X-RAY IMAGING AT LOW CONTRAST AGENT CONCENTRATIONS AND/OR LOW DOSE RADIATION” (priority 2010, published 2013).

Key:
[1] = Abdominal contrast enhanced CT in minipig, arterial phase, SNR of ROI; assay type: in vivo; settings: for ASiR 60% [SNR] / Veo [SNR]: 80 kVp
Procedure: (§1) An anaesthetized minipig (abdominal maximum and minimum diameters 36 cm and 20 cm, respectively) was imaged 3 times (imaging protocols 1, 2 and 3, Tables 3 and 4) on a Discovery CT 750 HD. Visipaque (60 mL) was injected at a rate of 2 mL/s into a jugular vein, followed by a 20 mL saline flush at the same injection rate. There was at least a 2 day washout period between each scanning session.
(§2) Protocol 1 with a Visipaque concentration of 320 mg l/mL and 120 kVp tube voltage represents current standard of care (SoC) imaging for humans. Automated tube current modulation (≦500 mA) was used with a noise index level of 30 and a tube rotation time of 0.7 s. Post-contrast CT images were acquired during the arterial phase, the portal venous phase, the venous phase and the late phase. Image reconstruction was done by (1) FBP, (2) ASiR 60% and (3) Veo. Pixel size was 0.703 mm×0.703 mm×0.625 mm.
(§3) Iodine contrast enhancement was assessed by measuring the signal-to-noise ratio (SNR) of circular regions of interest (ROI), see Tables 3 and 4. The SNR is calculated as ratio of mean ROI intensity in HU and standard deviation (SD). ROIs were placed in aorta and muscle (quadratus lumborum) in arterial phase images and in liver in venous phase images.

[2] = Abdominal contrast enhanced CT in minipig, venous phase, SNR of ROI; assay type: in vivo; settings: liver; for ASiR 60% [SNR] / Veo [SNR]: 80 kVp
Procedure: as §1, §2, §3

[3] = protocol 1: Visipaque 320 mg I/ml, 120 kVp, CTDIvol 6.7 mGy
[4] = protocol 2: Visipaque 170 mg I/ml, CTDIvol 3.2 mGy
[5] = protocol 3: Visipaque 120 mg I/ml, CTDIvol 6.4 mGy

**Q.** With `CC(=O)N(CC(O)CN(C(C)=O)c1c(I)c(C(=O)NCC(O)CO)c(I)c(C(=O)NCC(O)CO)c1I)c1c(I)c(C(=O)NCC(O)CO)c(I)c(C(=O)NCC(O)CO)c1I` (stereo not shown) [Visipaque, iodixanol] as the compound, how does the “FBP [SNR]” value [1, 3] read?
**A.** 8.3

**Q.** And the “ASiR 60% [SNR]” value [1, 4]?
**A.** 7.4

**Q.** What about the “Veo [SNR]” value [1, 4] of the same compound?
**A.** 12.8

**Q.** What about the “ASiR 60% [SNR]” value [1, 5] of the same compound?
**A.** 8.5

**Q.** What about the “Veo [SNR]” value [1, 5] of the same compound?
**A.** 14.2

**Q.** And the “FBP [SNR]” value [2, 3]?
**A.** 4.3

**Q.** What about the “ASiR 60% [SNR]” value [2, 4] of the same compound?
**A.** 3.5

**Q.** What about the “Veo [SNR]” value [2, 4] of the same compound?
**A.** 8.1

**Q.** What about the “ASiR 60% [SNR]” value [2, 5] of the same compound?
**A.** 4.7

**Q.** What about the “Veo [SNR]” value [2, 5] of the same compound?
**A.** 8.1
